The EC50 is the concentration at which the effect is half-maximal.

This is an account of results in patent US12139520B2 (priority 2020, dated 2024).

The target of one series is hAM1 receptor (Homo sapiens, UniProt O60895+Q16602). The experiment in a line: cAMP assay for in vitro receptor activation, hAM1-R. Format: cell-based. The note with it: cAMP assay, hAM1 receptor; read-out: hAM1R EC50. In a few lines:
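Stable hAM1 cells (monoclonal) plated 8000/well; buffer DPBS, 0.05% casein, 0.5 mM IBMX; cAMP read-out.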

The nature of series [1]: Physical stability of peptide analogues (Thioflavin T fibrillation). The note with it: maximum ThT signal normalized between hAMY maximum and buffer background; 40° C., shaking, four days; pH 7 per table title. The series is classed as physicochemical. In outline: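 Samples are stressed at 40 °C for four days, being shaken at 700 rpm before each 10-min fluorescence reading of 4 μM Thioflavin T. Buffers were pH 4 acetate or pH 7 phosphate. Reported values are smoothed maximum ThT signals as a percentage of the hAMY-to-background range.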

Bridge positions count the residues as written; N and C are the ends. Square brackets hold non-standard residues; d marks the D form. Peptide text beside a SMILES is read from it. Hyp = O=C(O)[C@@H]1C[C@@H](O)CN1; Cit = NC(=O)NCCC[C@H](N)C(=O)O

Sequence of hAM1 receptor (Q16602 23-461): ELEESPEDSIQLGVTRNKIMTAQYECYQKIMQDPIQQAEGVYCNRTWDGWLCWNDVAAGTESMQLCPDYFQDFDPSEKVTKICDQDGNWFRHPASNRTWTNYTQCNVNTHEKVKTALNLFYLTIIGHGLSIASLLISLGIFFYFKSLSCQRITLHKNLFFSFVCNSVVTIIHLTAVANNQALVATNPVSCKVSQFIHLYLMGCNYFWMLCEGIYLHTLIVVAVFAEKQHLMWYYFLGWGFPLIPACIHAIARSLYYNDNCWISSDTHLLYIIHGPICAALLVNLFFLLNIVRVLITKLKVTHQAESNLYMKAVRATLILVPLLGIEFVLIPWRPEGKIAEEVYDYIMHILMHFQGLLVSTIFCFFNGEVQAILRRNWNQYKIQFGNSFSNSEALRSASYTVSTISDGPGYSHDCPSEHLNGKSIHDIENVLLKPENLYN
Sequence of hAM1 receptor (O60895 43-175 partner): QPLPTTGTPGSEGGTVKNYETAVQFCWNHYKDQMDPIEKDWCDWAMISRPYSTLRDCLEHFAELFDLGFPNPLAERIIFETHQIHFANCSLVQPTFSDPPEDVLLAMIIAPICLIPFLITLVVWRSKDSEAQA

As for `CC[C@H](C)[C@H](NC(=O)[C@H](CCC(N)=O)NC(=O)[C@H](Cc1c[nH]cn1)NC(=O)[C@H](C)NC(=O)[C@H](CC(C)C)NC(=O)[C@H](CCCNC(=N)N)NC(=O)[C@H](CCC(N)=O)NC(=O)[C@@H](NC(=O)[C@@H](NC(=O)[C@@H]1CSSC[C@H](NC(=O)CN)C(=O)N[C@@H](CCCNC(=N)N)C(=O)N[C@@H]([C@@H](C)O)C(=O)NCC(=O)N[C@@H]([C@@H](C)O)C(=O)N1)[C@@H](C)O)C(C)C)C(=O)N[C@@H](Cc1ccc(O)cc1)C(=O)N[C@@H](CCC(N)=O)C(=O)N[C@@H](Cc1ccccc1)C(=O)N[C@H](C(=O)N[C@@H](CC(N)=O)C(=O)N[C@@H](CCCCN)C(=O)N[C@@H](CC(=O)O)C(=O)N[C@@H](CCCCN)C(=O)N[C@@H](CC(=O)O)C(=O)N[C@@H](CC(N)=O)C(=O)N[C@H](C(=O)N[C@@H](C)C(=O)N1CCC[C@H]1C(=O)N[C@@H](CCCNC(=N)N)C(=O)N[C@@H](CO)C(=O)N[C@@H](CCCCN)C(=O)N[C@H](C(=O)N[C@@H](CO)C(=O)N1CCC[C@H]1C(=O)N[C@@H](CCC(N)=O)C(=O)N[C@@H](Cc1c[nH]c2ccccc12)C(=O)N1C[C@H](O)C[C@H]1C(N)=O)[C@@H](C)CC)C(C)C)[C@@H](C)O` [compound 220] (H-GCRTGTCTVQRLAHQIYQFTNKDKDNVAPRSKISPQW[Hyp]-NH2; disulfide 2-7), the concentration for a half-maximal effect (EC50) on hAM1 receptor was > 5 µM. Moreover, in series [1], the “Max ThT signal (%)” value was found to be 1.100%.
On the same counts, the results for `CC[C@H](C)[C@H](NC(=O)[C@H](CCC(N)=O)NC(=O)[C@H](Cc1c[nH]cn1)NC(=O)[C@H](C)NC(=O)[C@H](CC(C)C)NC(=O)[C@H](CCCNC(=N)N)NC(=O)[C@H](CCC(N)=O)NC(=O)[C@@H](NC(=O)[C@@H](NC(=O)[C@@H]1CSSC[C@H](NC(=O)CN)C(=O)N[C@@H](CCCNC(=N)N)C(=O)N[C@@H]([C@@H](C)O)C(=O)NCC(=O)N[C@@H]([C@@H](C)O)C(=O)N1)[C@@H](C)O)C(C)C)C(=O)N[C@@H](Cc1c[nH]cn1)C(=O)N[C@@H](CCC(N)=O)C(=O)N[C@@H](Cc1ccccc1)C(=O)N[C@H](C(=O)N[C@@H](CC(=O)O)C(=O)N[C@@H](CCCCN)C(=O)N[C@@H](CC(=O)O)C(=O)N[C@@H](CCCCN)C(=O)N[C@@H](CC(=O)O)C(=O)N[C@@H](CC(N)=O)C(=O)N[C@H](C(=O)N[C@@H](C)C(=O)N1CCC[C@H]1C(=O)N[C@@H](CCCNC(=N)N)C(=O)N[C@@H](CO)C(=O)N[C@@H](CCCCN)C(=O)N[C@H](C(=O)N[C@@H](CO)C(=O)N1CCC[C@H]1C(=O)N[C@@H](CCC(N)=O)C(=O)N[C@H](C(=O)N1C[C@H](O)C[C@H]1C(N)=O)[C@@H](C)O)[C@@H](C)CC)C(C)C)[C@@H](C)O` [compound 228] (H-GCRTGTCTVQRLAHQIHQFTDKDKDNVAPRSKISPQT[Hyp]-NH2; disulfide 2-7; N-terminus assumed) are > 5 µM and 19.600%.
On the same counts, the results for `CC[C@H](C)[C@H](NC(=O)[C@H](CCC(N)=O)NC(=O)[C@H](Cc1c[nH]cn1)NC(=O)[C@H](C)NC(=O)[C@H](CC(C)C)NC(=O)[C@H](CCCNC(=N)N)NC(=O)[C@H](CCC(N)=O)NC(=O)[C@@H](NC(=O)[C@@H](NC(=O)[C@@H]1CSSC[C@H](NC(=O)CN)C(=O)N[C@@H](CCCNC(=N)N)C(=O)N[C@@H]([C@@H](C)O)C(=O)NCC(=O)N[C@@H]([C@@H](C)O)C(=O)N1)[C@@H](C)O)C(C)C)C(=O)N[C@@H](Cc1ccc(O)cc1)C(=O)N[C@@H](CCC(N)=O)C(=O)N[C@@H](Cc1ccccc1)C(=O)N[C@H](C(=O)N[C@@H](CC(=O)O)C(=O)N[C@@H](CCCCN)C(=O)N[C@@H](Cc1ccccc1)C(=O)N[C@@H](CCCCN)C(=O)N[C@@H](CC(=O)O)C(=O)N[C@@H](CC(N)=O)C(=O)N[C@H](C(=O)N[C@@H](C)C(=O)N1CCC[C@H]1C(=O)N[C@@H](CCCNC(=N)N)C(=O)N[C@@H](CO)C(=O)N[C@@H](CCCCN)C(=O)N[C@H](C(=O)N[C@@H](CO)C(=O)N1CCC[C@H]1C(=O)N[C@@H](CCC(N)=O)C(=O)N[C@H](C(=O)N[C@@H](Cc1ccc(O)cc1)C(N)=O)[C@@H](C)O)[C@@H](C)CC)C(C)C)[C@@H](C)O` [compound 230] (H-GCRTGTCTVQRLAHQIYQFTDKFKDNVAPRSKISPQTY-NH2; disulfide 2-7; N-terminus assumed) are > 5 µM and 0.600%.
On the same counts, the results for `CC[C@H](C)[C@H](NC(=O)[C@H](CCC(N)=O)NC(=O)[C@H](Cc1c[nH]cn1)NC(=O)[C@H](C)NC(=O)[C@H](CC(C)C)NC(=O)[C@H](CCCNC(=N)N)NC(=O)[C@H](CCC(N)=O)NC(=O)[C@@H](NC(=O)[C@@H](NC(=O)[C@@H]1CSSC[C@H](NC(=O)CN)C(=O)N[C@@H](CCCNC(=N)N)C(=O)N[C@@H]([C@@H](C)O)C(=O)NCC(=O)N[C@@H]([C@@H](C)O)C(=O)N1)[C@@H](C)O)C(C)C)C(=O)N[C@@H](Cc1ccc(O)cc1)C(=O)N[C@@H](CCC(N)=O)C(=O)N[C@@H](Cc1ccccc1)C(=O)N[C@H](C(=O)N[C@@H](CC(N)=O)C(=O)N[C@@H](CCCCN)C(=O)N[C@@H](CC(=O)O)C(=O)N[C@@H](CCCCN)C(=O)N[C@@H](CC(=O)O)C(=O)N[C@@H](CC(N)=O)C(=O)N[C@H](C(=O)N[C@@H](C)C(=O)N1CCC[C@H]1C(=O)N[C@@H](CCCNC(=N)N)C(=O)N[C@@H](CO)C(=O)N[C@@H](CCCCN)C(=O)N[C@H](C(=O)N[C@@H](CO)C(=O)N1CCC[C@H]1C(=O)N[C@@H](CCC(N)=O)C(=O)N[C@@H](CCC(N)=O)C(=O)N1C[C@H](O)C[C@H]1C(N)=O)[C@@H](C)CC)C(C)C)[C@@H](C)O` [compound 232] (H-GCRTGTCTVQRLAHQIYQFTNKDKDNVAPRSKISPQQ[Hyp]-NH2; disulfide 2-7; N-terminus assumed) are > 5 µM and 1.200%.
Turning to `CC[C@H](C)[C@H](NC(=O)[C@H](CCC(N)=O)NC(=O)[C@H](Cc1c[nH]cn1)NC(=O)[C@H](C)NC(=O)[C@H](CC(C)C)NC(=O)[C@H](CCCNC(=N)N)NC(=O)[C@H](CCC(N)=O)NC(=O)[C@@H](NC(=O)[C@@H](NC(=O)[C@@H]1CSSC[C@H](NC(=O)CN)C(=O)N[C@@H](CCCNC(=N)N)C(=O)N[C@@H](Cc2ccccc2)C(=O)NCC(=O)N[C@@H]([C@@H](C)O)C(=O)N1)[C@@H](C)O)C(C)C)C(=O)N[C@@H](Cc1ccc(O)cc1)C(=O)N[C@@H](CCC(N)=O)C(=O)N[C@@H](Cc1ccccc1)C(=O)N[C@H](C(=O)N[C@@H](CC(=O)O)C(=O)N[C@@H](CCCCN)C(=O)N[C@@H](CC(=O)O)C(=O)N[C@@H](CCCCN)C(=O)N[C@@H](CC(=O)O)C(=O)N[C@@H](CC(N)=O)C(=O)N[C@H](C(=O)N[C@@H](C)C(=O)N1CCC[C@H]1C(=O)N[C@@H](CO)C(=O)N[C@@H](CO)C(=O)N[C@@H](CCCCN)C(=O)N[C@H](C(=O)N[C@@H](CO)C(=O)N1CCC[C@H]1C(=O)N[C@@H](CCC(N)=O)C(=O)N[C@H](C(=O)N1C[C@H](O)C[C@H]1C(N)=O)[C@@H](C)O)[C@@H](C)CC)C(C)C)[C@@H](C)O` [compound 240] (H-GCRFGTCTVQRLAHQIYQFTDKDKDNVAPSSKISPQT[Hyp]-NH2; disulfide 2-7; N-terminus assumed), the EC50 on hAM1 receptor is > 5 µM. Besides, the “Max ThT signal (%)” value in series [1] was found to be 3.700%.
On the same counts, the results for `CC[C@H](C)[C@H](NC(=O)[C@H](CCC(N)=O)NC(=O)[C@H](Cc1c[nH]cn1)NC(=O)[C@H](C)NC(=O)[C@H](CC(C)C)NC(=O)[C@H](CCCNC(=N)N)NC(=O)[C@H](CCC(N)=O)NC(=O)[C@@H](NC(=O)[C@@H](NC(=O)[C@@H]1CSSC[C@H](NC(=O)CN)C(=O)N[C@@H](CCCNC(=N)N)C(=O)N[C@@H]([C@@H](C)O)C(=O)NCC(=O)N[C@@H]([C@@H](C)O)C(=O)N1)[C@@H](C)O)C(C)C)C(=O)N[C@@H](Cc1ccc(O)cc1)C(=O)N[C@@H](CCC(N)=O)C(=O)N[C@@H](Cc1ccccc1)C(=O)N[C@H](C(=O)N[C@@H](CC(N)=O)C(=O)N[C@@H](CCCCN)C(=O)N[C@@H](CC(=O)O)C(=O)N[C@@H](CCCCN)C(=O)N[C@@H](CC(=O)O)C(=O)N[C@@H](CC(N)=O)C(=O)N[C@H](C(=O)N[C@@H](C)C(=O)N1CCC[C@H]1C(=O)N[C@@H](CCCNC(=N)N)C(=O)N[C@@H](CO)C(=O)N[C@@H](CCCCN)C(=O)N[C@H](C(=O)N[C@@H](CO)C(=O)N1CCC[C@H]1C(=O)N[C@@H](CCC(N)=O)C(=O)N[C@H](C(=O)N[C@@H](CCCNC(=N)N)C(N)=O)[C@@H](C)O)[C@@H](C)CC)C(C)C)[C@@H](C)O` [compound 242] (H-GCRTGTCTVQRLAHQIYQFTNKDKDNVAPRSKISPQTR-NH2; disulfide 2-7; N-terminus assumed) are > 5 µM and 0.800%.
On the same counts, the results for `CC[C@H](C)[C@H](NC(=O)[C@H](CCCCN)NC(=O)[C@@H](NC(=O)[C@H](CCCNC(=N)N)NC(=O)[C@@H]1CCCN1C(=O)[C@H](C)NC(=O)[C@@H](NC(=O)[C@H](CC(N)=O)NC(=O)[C@H](CC(=O)O)NC(=O)[C@H](CCCCN)NC(=O)[C@H](CC(=O)O)NC(=O)[C@H](CCCCN)NC(=O)[C@H](CC(=O)O)NC(=O)[C@@H](NC(=O)[C@H](Cc1ccccc1)NC(=O)[C@H](CCC(N)=O)NC(=O)[C@H](Cc1ccc(O)cc1)NC(=O)[C@@H](NC(=O)[C@H](CCC(N)=O)NC(=O)[C@H](Cc1c[nH]cn1)NC(=O)[C@H](C)NC(=O)[C@H](CC(C)C)NC(=O)[C@H](CCCNC(N)=O)NC(=O)[C@H](CCC(N)=O)NC(=O)[C@@H](NC(=O)[C@@H](NC(=O)[C@@H]1CSSC[C@H](NC(=O)CN)C(=O)N[C@@H](CCCNC(=N)N)C(=O)N[C@@H]([C@@H](C)O)C(=O)NCC(=O)N[C@@H]([C@@H](C)O)C(=O)N1)[C@@H](C)O)C(C)C)[C@@H](C)CC)[C@@H](C)O)C(C)C)[C@@H](C)O)C(=O)NCC(=O)N1CCC[C@H]1C(=O)N[C@@H](CC(N)=O)C(=O)NCC(=O)N1C[C@H](O)C[C@H]1C(N)=O` [compound 277] (H-GCRTGTCTVQ[Cit]LAHQIYQFTDKDKDNVAPRTKIGPNG[Hyp]-NH2; disulfide 2-7; N-terminus assumed) are > 5 µM and 21.600%.
